Among the data in ChEMBL document CHEMBL1134970, “The TosMIC approach to 3-(oxazol-5-yl) indoles: application to the synthesis of indole-based IMPDH inhibitors” (Bioorg Med Chem Lett, 2002) are IC50 values, retold here.

The target of assay [1] is Inosine-5'-monophosphate dehydrogenase 2 (Homo sapiens, UniProt P12268). In words: Inhibitory concentration against Inosine-5'-monophosphate dehydrogenase 2 was determined.
In the next assay the test system is CCRF-CEM. In words: Inhibitory concentration against T-cell proliferation response in a CEM cell line (BMS-337197,CEM). Format: functional, cell-based. Particulars: Homo sapiens.

Consider `CC(=O)OCC(=O)N(C)c1ccccc1-c1cnc(Nc2ccc3c(-c4cnco4)c[nH]c3c2)o1`, for which the IC50 (as a rule, the midpoint of a concentration-inhibition curve) is 7 nM in assay [1] and 1000 nM with CCRF-CEM.

In assay [1], `Cc1cccc(NC(=O)Nc2ccc3c(-c4cnco4)cn(C)c3c2)c1` registered an IC50 greater than 5000 nM.

On to `c1ccc(-c2cnc(Nc3ccc4c(-c5cnco5)c[nH]c4c3)o2)cc1`, for which the IC50 is 93 nM in assay [1] and greater than 10000 nM in the assay with CCRF-CEM.

`Cc1ccc(NC(=O)Nc2ccc3c(-c4cnco4)cn(C)c3c2)cc1` had a 50% inhibitory concentration (IC50) in assay [1] greater than 5000 nM.

As for `CN(C(=O)CN1CCOCC1)c1ccccc1-c1cnc(Nc2ccc3c(-c4cnco4)c[nH]c3c2)o1`, the IC50 in assay [1] is 35 nM; with CCRF-CEM, 3000 nM.

With `Cc1cccc(NC(=O)Nc2ccc3c(-c4cnco4)c[nH]c3c2)c1`, the IC50 was 200 nM in assay [1] and greater than 10000 nM in the assay with CCRF-CEM.

`Cc1ccc(NC(=O)Nc2ccc3c(-c4cnco4)c[nH]c3c2)cc1`: the IC50 was 11 nM in assay [1] and greater than 10000 nM with CCRF-CEM.

As for `O=C(Nc1ccccc1)Nc1ccc2c(-c3cnco3)c[nH]c2c1`, the concentration for half-maximal inhibition (IC50) is 40 nM in assay [1] and greater than 10000 nM in the assay on CCRF-CEM.

Regarding `Cc1ccccc1-c1cnc(Nc2ccc3c(-c4cnco4)c[nH]c3c2)o1`, the IC50 in assay [1] was 38 nM; with CCRF-CEM, greater than 10000 nM.

On to `Cc1ccccc1NC(=O)Nc1ccc2c(-c3cnco3)c[nH]c2c1`, for which the IC50 in assay [1] amounted to 35 nM; in the assay on CCRF-CEM it was 9700 nM.

`Cc1ccc(-c2cnc(Nc3ccc4c(-c5cnco5)c[nH]c4c3)o2)cc1`: the IC50 in assay [1] is 205 nM; in the assay with CCRF-CEM it was greater than 10000 nM.

On to `Cc1cccc(-c2cnc(Nc3ccc4c(-c5cnco5)c[nH]c4c3)o2)c1`, for which the IC50 in assay [1] amounted to 77 nM; with CCRF-CEM, 1500 nM.

`COc1cc(Nc2ncc(-c3ccccc3N(C)C(=O)CN3CCOCC3)o2)ccc1-c1cnco1`: the IC50 was found to be 16 nM in assay [1] and 590 nM with CCRF-CEM.

As for `COc1cc(NC(=O)Nc2cccc(C)c2)ccc1-c1cnco1`, the half-inhibitory concentration (IC50) in assay [1] is 19 nM; with CCRF-CEM it was 1000 nM.
